Assay results from patent US20040006070A1, “Intraspinal continuous infusion of midazolam hydrochloride for the treatment of pain” (priority 2002, published 2004).
Structures can show the parent of a compound that is named as a salt.

Test: Bloodwork: complete blood count, electrolytes, extended blood chemistry
Assay type: in vivo, sheep
Conditions: for Total Bili: ref 0.14-0.32; for Creatinine: ref 1-2.7; for Albumin: ref 2.4-3; for K+: ref 3.9-5.4; for Phos: ref 5-7.3; for Total Prot: ref 6-7.9
Description: Indirect blood pressure, pulse recording, pain testing (mechanical stimulus device, cold and warm water baths see description in procedure) and weight were taken on days 1, 3, 7, 15, 22, 29, 36, and 43. Venous blood samples (15 ml drawn from the jugular vein with Vacutainer brand blood collection tubes) for complete blood count, electrolytes, and extended blood chemistry were drawn on days 1, 15, and 43 (mild procedure only light hand restraint necessary).

Cc1ncc2n1-c1ccc(Cl)cc1C(c1ccccc1F)=NC2 [Midazolam, midazolam hydrochloride]
Glucose (sheep #91, 15 mg/day, Day 1): 77 mg/dL
Hct (sheep #91, 15 mg/day, Day 1): 29.2%
Hgb (sheep #91, 15 mg/day, Day 1): 9.84 g/dL
MCH (sheep #91, 15 mg/day, Day 1): 10.7 pg
MCHC (sheep #91, 15 mg/day, Day 1): 33.7 g/dL
MCV (sheep #91, 15 mg/day, Day 1): 31.8 fL
Na+ (sheep #91, 15 mg/day, Day 1): 149 mEq/l
Platlet Count (sheep #91, 15 mg/day, Day 1): 996000 µL⁻¹
RBC (sheep #91, 15 mg/day, Day 1): 9.18e+06 µL⁻¹
WBC (sheep #91, 15 mg/day, Day 1): 7090 µL⁻¹
Total Bili (sheep #91, 15 mg/day, Day 1): 0.1 mg/dL
Creatinine (sheep #91, 15 mg/day, Day 1): 1.6 mg/dL
Albumin (sheep #91, 15 mg/day, Day 1): 3.3 g/dL
K+ (sheep #91, 15 mg/day, Day 1): 4.9 mEq/l
Phos (sheep #91, 15 mg/day, Day 1): 6.2 mg/dL
Total Prot (sheep #91, 15 mg/day, Day 1): 6.1 g/dL
ALT (sheep #91, 15 mg/day, Day 15): 10 U/L
AST (sheep #91, 15 mg/day, Day 15): 50 U/L
Alk Phos (sheep #91, 15 mg/day, Day 15): 162 U/L
BUN (sheep #91, 15 mg/day, Day 15): 13 mg/dL
CPK (sheep #91, 15 mg/day, Day 15): 56 U/L
Cholesterol (sheep #91, 15 mg/day, Day 15): 56 mg/dL
Differential Count: Eosin (sheep #91, 15 mg/day, Day 15): 12%
Differential Count: Lymph (sheep #91, 15 mg/day, Day 15): 44%
Differential Count: Seg (sheep #91, 15 mg/day, Day 15): 44%
Gamma GT (sheep #91, 15 mg/day, Day 15): 60 U/L
Glucose (sheep #91, 15 mg/day, Day 15): 83 mg/dL
Hct (sheep #91, 15 mg/day, Day 15): 31.8%
Hgb (sheep #91, 15 mg/day, Day 15): 10.8 g/dL
MCH (sheep #91, 15 mg/day, Day 15): 10.8 pg
MCHC (sheep #91, 15 mg/day, Day 15): 34.0 g/dL
MCV (sheep #91, 15 mg/day, Day 15): 31.8 fL
Na+ (sheep #91, 15 mg/day, Day 15): 148 mEq/l
Platlet Count (sheep #91, 15 mg/day, Day 15): 848000 µL⁻¹
RBC (sheep #91, 15 mg/day, Day 15): 1e+07 µL⁻¹
WBC (sheep #91, 15 mg/day, Day 15): 5130 µL⁻¹
Total Bili (sheep #91, 15 mg/day, Day 15): 0.0 mg/dL
Creatinine (sheep #91, 15 mg/day, Day 15): 1.3 mg/dL
Albumin (sheep #91, 15 mg/day, Day 15): 3.3 g/dL
K+ (sheep #91, 15 mg/day, Day 15): 4.4 mEq/l
Phos (sheep #91, 15 mg/day, Day 15): 6.1 mg/dL
Total Prot (sheep #91, 15 mg/day, Day 15): 6.2 g/dL
ALT (sheep #91, 15 mg/day, Day 43): 9 U/L
AST (sheep #91, 15 mg/day, Day 43): 63 U/L
Alk Phos (sheep #91, 15 mg/day, Day 43): 174 U/L
BUN (sheep #91, 15 mg/day, Day 43): 14 mg/dL
CPK (sheep #91, 15 mg/day, Day 43): 54 U/L
Cholesterol (sheep #91, 15 mg/day, Day 43): 66 mg/dL
Differential Count: Eosin (sheep #91, 15 mg/day, Day 43): 5%
Differential Count: Lymph (sheep #91, 15 mg/day, Day 43): 41%
Differential Count: Mono (sheep #91, 15 mg/day, Day 43): 2%
Differential Count: Seg (sheep #91, 15 mg/day, Day 43): 52%
Gamma GT (sheep #91, 15 mg/day, Day 43): 58 U/L
Glucose (sheep #91, 15 mg/day, Day 43): 81 mg/dL
Hct (sheep #91, 15 mg/day, Day 43): 36.3%
Hgb (sheep #91, 15 mg/day, Day 43): 12.2 g/dL
MCH (sheep #91, 15 mg/day, Day 43): 10.4 pg
MCHC (sheep #91, 15 mg/day, Day 43): 33.6 g/dL
MCV (sheep #91, 15 mg/day, Day 43): 30.9 fL
Na+ (sheep #91, 15 mg/day, Day 43): 147 mEq/l
Platlet Count (sheep #91, 15 mg/day, Day 43): 805000 µL⁻¹
RBC (sheep #91, 15 mg/day, Day 43): 1.18e+07 µL⁻¹
WBC (sheep #91, 15 mg/day, Day 43): 5330 µL⁻¹
Total Bili (sheep #91, 15 mg/day, Day 43): 0.1 mg/dL
Creatinine (sheep #91, 15 mg/day, Day 43): 1.5 mg/dL
Albumin (sheep #91, 15 mg/day, Day 43): 3.6 g/dL
K+ (sheep #91, 15 mg/day, Day 43): 4.6 mEq/l
Phos (sheep #91, 15 mg/day, Day 43): 7.3 mg/dL
Total Prot (sheep #91, 15 mg/day, Day 43): 6.4 g/dL
ALT (sheep #457, 15 mg/day, Day 1): 10 U/L
AST (sheep #457, 15 mg/day, Day 1): 85 U/L
Alk Phos (sheep #457, 15 mg/day, Day 1): 43 U/L
BUN (sheep #457, 15 mg/day, Day 1): 14 mg/dL
CPK (sheep #457, 15 mg/day, Day 1): 122 U/L
Cholesterol (sheep #457, 15 mg/day, Day 1): 59 mg/dL
Differential Count: Eosin (sheep #457, 15 mg/day, Day 1): 1%
Differential Count: Lymph (sheep #457, 15 mg/day, Day 1): 26%
Differential Count: Seg (sheep #457, 15 mg/day, Day 1): 73%
Gamma GT (sheep #457, 15 mg/day, Day 1): 59 U/L
Glucose (sheep #457, 15 mg/day, Day 1): 91 mg/dL
Hct (sheep #457, 15 mg/day, Day 1): 34.4%
Hgb (sheep #457, 15 mg/day, Day 1): 10.5 g/dL
MCH (sheep #457, 15 mg/day, Day 1): 10.2 pg
MCHC (sheep #457, 15 mg/day, Day 1): 30.5 g/dL
MCV (sheep #457, 15 mg/day, Day 1): 33.4 fL
Na+ (sheep #457, 15 mg/day, Day 1): 147 mEq/l
Platlet Count (sheep #457, 15 mg/day, Day 1): 276000 µL⁻¹
RBC (sheep #457, 15 mg/day, Day 1): 8.68e+06 µL⁻¹
WBC (sheep #457, 15 mg/day, Day 1): 11900 µL⁻¹
Total Bili (sheep #457, 15 mg/day, Day 1): 0.1 mg/dL
Creatinine (sheep #457, 15 mg/day, Day 1): 1.1 mg/dL
Albumin (sheep #457, 15 mg/day, Day 1): 2.8 g/dL
K+ (sheep #457, 15 mg/day, Day 1): 4.4 mEq/l
Phos (sheep #457, 15 mg/day, Day 1): 6.2 mg/dL
Total Prot (sheep #457, 15 mg/day, Day 1): 5.0 g/dL
ALT (sheep #457, 15 mg/day, Day 15): 14 U/L
AST (sheep #457, 15 mg/day, Day 15): 55 U/L
Alk Phos (sheep #457, 15 mg/day, Day 15): 93 U/L
BUN (sheep #457, 15 mg/day, Day 15): 20 mg/dL
CPK (sheep #457, 15 mg/day, Day 15): 73 U/L
Cholesterol (sheep #457, 15 mg/day, Day 15): 65 mg/dL
Differential Count: Lymph (sheep #457, 15 mg/day, Day 15): 71%
Differential Count: Mono (sheep #457, 15 mg/day, Day 15): 3%
Differential Count: Seg (sheep #457, 15 mg/day, Day 15): 24%
Gamma GT (sheep #457, 15 mg/day, Day 15): 72 U/L
Glucose (sheep #457, 15 mg/day, Day 15): 60 mg/dL
Hct (sheep #457, 15 mg/day, Day 15): 35.4%
Hgb (sheep #457, 15 mg/day, Day 15): 10.9 g/dL
MCH (sheep #457, 15 mg/day, Day 15): 10.6 pg
MCHC (sheep #457, 15 mg/day, Day 15): 30.8 g/dL
MCV (sheep #457, 15 mg/day, Day 15): 34.4 fL
Na+ (sheep #457, 15 mg/day, Day 15): 150 mEq/l
Platlet Count (sheep #457, 15 mg/day, Day 15): 45000 µL⁻¹
RBC (sheep #457, 15 mg/day, Day 15): 8.72e+06 µL⁻¹
WBC (sheep #457, 15 mg/day, Day 15): 15400 µL⁻¹
Total Bili (sheep #457, 15 mg/day, Day 15): 0.1 mg/dL
Creatinine (sheep #457, 15 mg/day, Day 15): 1.1 mg/dL
Albumin (sheep #457, 15 mg/day, Day 15): 3.3 g/dL
K+ (sheep #457, 15 mg/day, Day 15): 4.4 mEq/l
Phos (sheep #457, 15 mg/day, Day 15): 4.7 mg/dL
Total Prot (sheep #457, 15 mg/day, Day 15): 5.9 g/dL
ALT (sheep #457, 15 mg/day, Day 43): 12 U/L
AST (sheep #457, 15 mg/day, Day 43): 69 U/L
Alk Phos (sheep #457, 15 mg/day, Day 43): 105 U/L
BUN (sheep #457, 15 mg/day, Day 43): 15 mg/dL
CPK (sheep #457, 15 mg/day, Day 43): 51 U/L
Cholesterol (sheep #457, 15 mg/day, Day 43): 88 mg/dL
Differential Count: Eosin (sheep #457, 15 mg/day, Day 43): 7%
Differential Count: Lymph (sheep #457, 15 mg/day, Day 43): 68%
Differential Count: Mono (sheep #457, 15 mg/day, Day 43): 2%
Differential Count: Seg (sheep #457, 15 mg/day, Day 43): 23%
Gamma GT (sheep #457, 15 mg/day, Day 43): 61 U/L
Glucose (sheep #457, 15 mg/day, Day 43): 67 mg/dL
Hct (sheep #457, 15 mg/day, Day 43): 40.4%
Hgb (sheep #457, 15 mg/day, Day 43): 12.6 g/dL
MCH (sheep #457, 15 mg/day, Day 43): 11.5 pg
MCHC (sheep #457, 15 mg/day, Day 43): 31.2 g/dL
MCV (sheep #457, 15 mg/day, Day 43): 33.7 fL
Na+ (sheep #457, 15 mg/day, Day 43): 145 mEq/l
RBC (sheep #457, 15 mg/day, Day 43): 1.098e+07 µL⁻¹
WBC (sheep #457, 15 mg/day, Day 43): 11200 µL⁻¹
Total Bili (sheep #457, 15 mg/day, Day 43): 0.1 mg/dL
Creatinine (sheep #457, 15 mg/day, Day 43): 1.4 mg/dL
Albumin (sheep #457, 15 mg/day, Day 43): 3.3 g/dL
K+ (sheep #457, 15 mg/day, Day 43): 4.9 mEq/l
Phos (sheep #457, 15 mg/day, Day 43): 5.9 mg/dL
Total Prot (sheep #457, 15 mg/day, Day 43): 5.7 g/dL
ALT (sheep #473, 3 mg/day, Day 1): 22 U/L
